Numbers after ± are expanded uncertainties.
Test: xn = mol fraction of the nth substance listed
Settings: Fluid (supercritical or subcritical phases), isochoric method

CC(F)F [1,1-difluoroethane] + O=C=O
Settings	molar volume [m3/mol]
293.08 K, 3005 kPa, x2 = 0.873	0.000595 ± 1e-06
293.09 K, 577 kPa, x2 = 0.25	0.003751 ± 8e-06
293.09 K, 699 kPa, x2 = 0.389	0.00308 ± 6e-06
293.09 K, 930 kPa, x2 = 0.503	0.002291 ± 5e-06
293.09 K, 1290 kPa, x2 = 0.685	0.001629 ± 3e-06
293.09 K, 1572 kPa, x2 = 0.731	0.001321 ± 3e-06
293.1 K, 1257 kPa, x2 = 0.631	0.001641 ± 3e-06
298.07 K, 590 kPa, x2 = 0.25	0.003752 ± 8e-06
298.07 K, 715 kPa, x2 = 0.389	0.003081 ± 6e-06
298.07 K, 952 kPa, x2 = 0.503	0.002292 ± 5e-06
298.07 K, 1610 kPa, x2 = 0.731	0.001321 ± 3e-06
298.07 K, 3114 kPa, x2 = 0.873	0.000595 ± 1e-06
298.08 K, 1320 kPa, x2 = 0.685	0.00163 ± 3e-06
298.09 K, 1287 kPa, x2 = 0.631	0.001641 ± 3e-06
303.04 K, 3203 kPa, x2 = 0.873	0.000595 ± 1e-06
303.05 K, 602 kPa, x2 = 0.25	0.003753 ± 8e-06
303.05 K, 973 kPa, x2 = 0.503	0.002292 ± 5e-06
303.06 K, 589 kPa, x2 = 0.117	0.003796 ± 8e-06
303.06 K, 731 kPa, x2 = 0.389	0.003081 ± 6e-06
303.06 K, 1350 kPa, x2 = 0.685	0.00163 ± 3e-06
303.06 K, 1648 kPa, x2 = 0.731	0.001321 ± 3e-06
303.07 K, 1317 kPa, x2 = 0.631	0.001642 ± 3e-06
308.03 K, 602 kPa, x2 = 0.117	0.003797 ± 8e-06
308.03 K, 3292 kPa, x2 = 0.873	0.000595 ± 1e-06
308.04 K, 615 kPa, x2 = 0.25	0.003753 ± 8e-06
308.04 K, 746 kPa, x2 = 0.389	0.003082 ± 6e-06
308.04 K, 994 kPa, x2 = 0.503	0.002293 ± 5e-06
308.04 K, 1380 kPa, x2 = 0.685	0.00163 ± 3e-06
308.05 K, 1346 kPa, x2 = 0.631	0.001642 ± 3e-06
308.05 K, 1685 kPa, x2 = 0.731	0.001322 ± 3e-06
313.02 K, 615 kPa, x2 = 0.117	0.003798 ± 8e-06
313.02 K, 3380 kPa, x2 = 0.873	0.000595 ± 1e-06
313.03 K, 627 kPa, x2 = 0.25	0.003754 ± 8e-06
313.03 K, 761 kPa, x2 = 0.389	0.003083 ± 6e-06
313.03 K, 1015 kPa, x2 = 0.503	0.002293 ± 5e-06
313.03 K, 1409 kPa, x2 = 0.685	0.001631 ± 3e-06
313.03 K, 1722 kPa, x2 = 0.731	0.001322 ± 3e-06
313.04 K, 1375 kPa, x2 = 0.631	0.001642 ± 3e-06
318 K, 3467 kPa, x2 = 0.873	0.000596 ± 1e-06
318.01 K, 627 kPa, x2 = 0.117	0.003799 ± 8e-06
318.01 K, 776 kPa, x2 = 0.389	0.003084 ± 6e-06
318.01 K, 1035 kPa, x2 = 0.503	0.002294 ± 5e-06
318.01 K, 1438 kPa, x2 = 0.685	0.001631 ± 3e-06
318.02 K, 640 kPa, x2 = 0.25	0.003755 ± 8e-06
318.02 K, 1758 kPa, x2 = 0.731	0.001322 ± 3e-06
318.03 K, 1404 kPa, x2 = 0.631	0.001643 ± 3e-06
323 K, 640 kPa, x2 = 0.117	0.0038 ± 8e-06
323 K, 652 kPa, x2 = 0.25	0.003756 ± 8e-06
323 K, 791 kPa, x2 = 0.389	0.003084 ± 6e-06
323 K, 1056 kPa, x2 = 0.503	0.002294 ± 5e-06
323 K, 1467 kPa, x2 = 0.685	0.001632 ± 3e-06
323 K, 1794 kPa, x2 = 0.731	0.001322 ± 3e-06
323 K, 3554 kPa, x2 = 0.873	0.000596 ± 1e-06
323.01 K, 1433 kPa, x2 = 0.631	0.001643 ± 3e-06
327.97 K, 3638 kPa, x2 = 0.873	0.000596 ± 1e-06
327.98 K, 652 kPa, x2 = 0.117	0.003801 ± 8e-06
327.98 K, 1076 kPa, x2 = 0.503	0.002295 ± 5e-06
327.98 K, 1830 kPa, x2 = 0.731	0.001323 ± 3e-06
327.99 K, 664 kPa, x2 = 0.25	0.003757 ± 8e-06
327.99 K, 806 kPa, x2 = 0.389	0.003085 ± 6e-06
327.99 K, 1496 kPa, x2 = 0.685	0.001632 ± 3e-06
328 K, 1461 kPa, x2 = 0.631	0.001643 ± 3e-06
332.96 K, 3723 kPa, x2 = 0.873	0.000596 ± 1e-06
332.97 K, 664 kPa, x2 = 0.117	0.003801 ± 8e-06
332.97 K, 820 kPa, x2 = 0.389	0.003086 ± 6e-06
332.97 K, 1096 kPa, x2 = 0.503	0.002295 ± 5e-06
332.97 K, 1524 kPa, x2 = 0.685	0.001632 ± 3e-06
332.97 K, 1866 kPa, x2 = 0.731	0.001323 ± 3e-06
332.98 K, 676 kPa, x2 = 0.25	0.003758 ± 8e-06
332.98 K, 1489 kPa, x2 = 0.631	0.001644 ± 3e-06
337.94 K, 3807 kPa, x2 = 0.873	0.000596 ± 1e-06
337.95 K, 835 kPa, x2 = 0.389	0.003086 ± 6e-06
337.95 K, 1116 kPa, x2 = 0.503	0.002296 ± 5e-06
337.96 K, 677 kPa, x2 = 0.117	0.003802 ± 8e-06
337.96 K, 688 kPa, x2 = 0.25	0.003758 ± 8e-06
337.96 K, 1553 kPa, x2 = 0.685	0.001633 ± 3e-06
337.96 K, 1901 kPa, x2 = 0.731	0.001323 ± 3e-06
337.97 K, 1517 kPa, x2 = 0.631	0.001644 ± 3e-06
342.93 K, 3890 kPa, x2 = 0.873	0.000596 ± 1e-06
342.94 K, 850 kPa, x2 = 0.389	0.003087 ± 6e-06
342.94 K, 1136 kPa, x2 = 0.503	0.002296 ± 5e-06
342.94 K, 1580 kPa, x2 = 0.685	0.001633 ± 3e-06
342.94 K, 1936 kPa, x2 = 0.731	0.001324 ± 3e-06
342.95 K, 689 kPa, x2 = 0.117	0.003803 ± 8e-06
342.95 K, 700 kPa, x2 = 0.25	0.003759 ± 8e-06
342.96 K, 1545 kPa, x2 = 0.631	0.001645 ± 3e-06

Source: the NIST ThermoML archive (doi:10.1021/je600583u)
